# From patent publication US20020111314A1, “Novel stimulation of gene expression and protein synthesis of heat shock protein 72/73 (Hsp 70)” (The Trustees of Columbia University, priority 1995, published 2002)
# Entries after “also recorded” stand apart in the source; their conditions may differ. Peptide text beside a SMILES is read from it.
# Columns and labels:
# Hsp70 = Hsp70 induction in HepG2 cells ([3H]-leucine labeling, denaturing immunoprecipitation); assay type: cell-based, human; settings: HepG2
# Procedure: HepG2 cells were grown up to 95% confluence and then preincubated for 4 hours in a 37° C. incubator with serum-free minimum essential medium (MEM), followed by radiolabeling with 3H-leucine (150 μCi/ml) dissolved in serum-free, leucine-free medium. Preincubation and labeling medium each contained 1.5% bovine serum albumin (BSA) plus different concentrations of ALLN as indicated. After labeling, cells were collected and lysed, and Hsp70 was immunoprecipitated under denaturing conditions as described under Experimental Details. Cell lysates containing an equal amount of TCA-insoluble radioactivity were used for immunoprecipitation. (A): The immunoprecipitates were analyzed by sodium dodecyl sulfate-polyacryamide gel electrophoresis (SDS-PAGE) and fluorography. Numbers on the left-hand side denote molecular markers. (B): The Hsp70 radioactivity was quantitated by scintillation counting and plotted. All the values were presented as means±SD from three individual culture dishes.
# (§1) FIGS. 3A-3B: Effects of the other protease inhibitors on Hsp70 biosynthesis in HepG2 cells. HepG2 cells were preincubated in serum-free MEM containing either 1.5% BSA alone (Control), or BSA plus 40 μg/ml of ALLN, 40 μg/ml of ALLM, 50 μg/ml of leupeptin, 50 μg/ml of pepstatin A, 25 μg/ml of E-64d, 1 mM of phenylmethylsulfonyl fluoride (PMSF), 100 KIU/ml of apotinin, 1 mM of Benzamidine (Benz), 200 μM of calpain inhibitor peptide (CIP). Radiolabeling (in the presence of protease inhibitors), lysis and immunoprecipitation were performed as described in FIG. 1. The Hsp70 specific radioactivity (A) and the amount of total incorporated radioactivity (TCA-cpm) (B) were compared with each other. All the values were presented as the mean±SD from three individual culture dishes.
# FIGS. 9A-9B: Effects of proteasome inhibitors on Hsp70 induction. HepG2 cells were preincubated with the proteasome inhibitors MG132 at a final concentration of either 10 μM or 30 μM (A), or lactacystin at 10 μM (B) for 4 hours under conditions described in FIG. 3. These cells were then subjected to radiolabeling (30 min), cell lysis, and immunoprecipitation with anti-Hsp70 antibody. The experiments with MG132 (A) were repeated twice; the effects of lactacystin (B) were studied in triplicate culture dishes.
# ALLN, leupeptin, mouse anti-human Hsp72/73 monoclonal antibody, a secondary antibody conjugated with horseradish peroxidase (HRP) (goat anti-rabbit immunoglubin G [IgG]), and rabbit anti-rat IgG antibody were from Boehringer Mannheim Co. Anti-Human Hsp25 and anti-human Hsp60 monoclonal antibodies, ALLM, Calpain inhibitor peptide (CIP), dimethyl sulfoxide (DMSO) and dithiothreitol (DTT) were from Sigma. Human Hsp70 oligonucleotide probe was from Oncogene Science. This oligonucleotide was ^32P labeled at the 5′-end by T4 Kinase, which was from Biolabs. ^32P was from ICN Pharmaceutical Inc. L-[4,5-^3H] leucine was from Amersham Co. Anti-human Bip (immunoglobulin heavy chain binding protein, also called Grp78), anti-human Hsp27, anti-human Hsp60, and anti-human Hsp90 monoclonal antibodies were from Stress Genes. Anti-human Hsp86 and Hsp104 antibodies were from Affinity Bioreagent Inc. Nitrocellular transfer and immobilization membranes were from Schleicher & Schuell, Keene, N.H. RNA extraction kits were from Biotect, Tex. The polyclonal antibody against the human HSF1 protein was a generous gift from Dr. Carl Wu of the National Institute of Health (Rabindran, et al., 1993). Ethylene glycol bis(succunimidylsuccinate) (EGS) was from Pierce. Cbz-leucyl-leucyl-leucinal (MG132) was a gift of Dr. H. Ploegh at the Massachusetts Institute of Technology. All the other tissue culture supplies and chemicals were obtained from supplies as previously described (Dixon, et al., 1991). The HepG2 cell culture conditions were maintained as previously described (Dixon, et al., 1991).
# proteasomes = settings: Rock, et al., 1994; cited from earlier work
# [1] = system: cysteine proteases, calpain and cathepsin B; settings: Rock, et al., 1994; cited from earlier work
# HSF1 = HSF1 steady-state level and trimerization (Western blot, EGS cross-linking) in HepG2 cells; assay type: cell-based, human
# Procedure: HepG2 cells were treated with serum-free MEM containing 1.5% BSA for 2 hours at 37° C. without any additions (lane 1), at 37° C. but containing 40 μg/ml of ALLN in the medium (lane 2), at 37° C. in a medium containing both ALLN and 50 μg/ml of cycloheximide (lane 3), at 42° C. alone (lane 4), or at 42° C. plus cycloheximide in the medium (lane 5). Cell lysates were prepared as described under Experimental Details. The lysates were either directly run on the SDS-PAGE (A) to show the steady-state protein levels of HSF1 or subjected to cross-linking with ethylene glycol bis sucrinimidylsuccinate (EGS) before running the gel (B) to show the oligomeric forms of HSF1. The proteins were then transfered to a nitrocellulose membrane and immunoblotted with anti-human HSF1 antibody. Arrows on the right side indicates the monomeric, dimeric or trimeric forms of HSF1, respectively. This experiment was repeated three times with identical results.
# Total RNA was prepared using the procedure of Chomczynski and Sacchi (Chomczynski, et al., 1987) and a commercially prepared reagent, TRISOLV™ (Biotecx Laboratories Inc., TX). Equal amounts of tRNA samples (10 μg) were size-fractionated on a 1% agarose-formaldehyde gel according to the methods described (Maniatis, et al., 1982) and transferred to a piece of QIAGEN plus nylon membrane. To determine loading and transfer efficiency, RNA was stained with ethidium bromide before and after transfer. The membrane was baked for 30 min. at 80° C. in vacuo (a vacuum) followed by UV cross-linking. It was then incubated for 4 hours at 65° C. in a prehybridization mixture containing 10% dextran sulfate, 1% SDS, 1M sodium chloride, 50 mM Tris-HCl (pH 7.5) and 100 μg/ml denatured salmon sperm DNA. Hybridization was carried out for 18 hours at 65° C. in the same buffer with a ^32P-labeled (1×10^6 cpm/ml) 40-mer oligonucleotide probe to the untranslated 5′ region of a human hsp70 gene (Oncogene Science). […] The membrane was then washed four times with 2×SSC, 0.1% SDS at room temperature, one time at 65° C. for 30 min., and one time at room temperature again for 5 min., and finally rinsed with 2×SSC at room temperature. This membrane was air dried and exposed to X-ray film at −80° C. for 48 hours. For measurement of the steady-state HSF1 protein levels, whole cell extracts were prepared by lysing the cells directly with 2×SDS-sample buffer (Maniatis, et al., 1982). For chemical cross-linking experiments, whole-cell extracts were prepared as described (Mosser, et al., 1988). Briefly, the cold PBS-washed cell pellets were quickly and repeatedly frozen in liquid nitrogen. […]
# hsp70, i.e. hsp72, mRNA = assay: Northern blot of hsp70 (hsp72) mRNA in HepG2 cells; assay type: cell-based, human; settings: ALLN 40 μg/ml plus actinomycin D 10 μg/ml or cycloheximide 50 μg/ml, 4 hours
# Procedure: After 4 hours treatment at 37° C., cells were harvested. (B). […] The total RNA was prepared, and equal amounts of the samples were loaded and run on a 1% formaldehyde-agarose gel, blotted onto a nylon membrane, and subsequently hybridized with specific synthetic oligonucleotide probes for hsp70 mRNA as described under Experimental Details. The position of 28S and 18S rRNA are shown for reference.
# Equal amounts of tRNA samples (10 μg) were size-fractionated on a 1% agarose-formaldehyde gel according to the methods described (Maniatis, et al., 1982) and transferred to a piece of QIAGEN plus nylon membrane. To determine loading and transfer efficiency, RNA was stained with ethidium bromide before and after transfer. The membrane was baked for 30 min. at 80° C. in vacuo (a vacuum) followed by UV cross-linking. It was then incubated for 4 hours at 65° C. in a prehybridization mixture containing 10% dextran sulfate, 1% SDS, 1M sodium chloride, 50 mM Tris-HCl (pH 7.5) and 100 μg/ml denatured salmon sperm DNA. […] The membrane was then washed four times with 2×SSC, 0.1% SDS at room temperature, one time at 65° C. for 30 min., and one time at room temperature again for 5 min., and finally rinsed with 2×SSC at room temperature.
# [2] = system: cysteine protease, serine protease, trypsin or chymotrypsin; settings: even upon extended exposure; Ward 1995, Fenteany 1995; cited from earlier work
# HepG2 cells = assay: Total incorporation of radiolabel (TCA cpm) as indicator of cell toxicity in HepG2 cells; assay type: cell-based, human; settings: MG132 10 or 30 μM, lactacystin 10 μM, data not shown
# Procedure: as §1
# Preincubation and labeling media each contained either 1.5% bovine serum albumin (BSA) alone, or BSA plus ALLN (40 μg/ml except as otherwise indicated), or BSA plus other protease inhibitors at concentrations indicated in the figure legends. At the indicated times, cells were removed from the 37° C. incubator and placed on ice, washed with cold phosphate-buffer saline (PBS) twice and lysed with lysis buffer containing 1% Triton X-100 (TX100), 1% deoxycholic acid (DOC) and 0.1% SDS in PBS containing proteinase inhibitors: 2 mM phenylmethylsulfonyl fluoride (PMSF); 2 μg/ml ALLN; 2 μg/ml leupeptin; and 2 μg/ml aprotinin. After a 30 min. incubation with lysis buffer at 4° C., the lysates were centrifuged at 14,000 g in a microcentrifuge for 5 min., and the supernatants were adjusted to 1% SDS concentration and boiled for 5 min. to denature the proteins. 1% TX100 was then added to dilute the lysates to a final concentration of 0.1% SDS. Cell lysates containing equal amounts of trichloroacetic acid (TCA)-insoluble radioactivity were used for immunoprecipitations by incubating with individual monoclonal antibody (1 μg/ml) for 2.5 hours at 4° C. Protein-A Sepharose 4B was added afterwards and the lysates incubated for another 1.5 hours at 4° C. to collect the immunocomplexes. […]
structure (smiles),measurement,setting,value
"CSCC[C@@H](C=O)NC(=O)[C@H](CC(C)C)NC(=O)[C@H](CC(C)C)NC(C)=O [ALLM, N-acetyl-leucyl-leucyl-methioninal] (Ac-Leu-Leu-Met-aldehyde)",induction of Hsp70 by protease inhibitors (FIG. 3A),"Hsp70; 4 h pre-treatment, ALLN 40, ALLM 40, leupeptin 50, pepstatin A 50, E-64d 25 μg/ml, PMSF 1 mM, aprotinin 100 KIU/ml",significantly induce; also recorded: less ability to induce Hsp70 levels
same,inhibition of proteasomes,proteasomes,potent inhibitors
same,activities against calpain and cathepsin B,[1],significant activities
C[C@@H]1C[C@@H]([C@H](O)CC2CC(=O)NC(=O)C2)C(=O)[C@@H](C)C1 [cycloheximide],effect on heat shock-associated HSF1 trimerization,HSF1; 42° C. plus cycloheximide 50 μg/ml,"did not, however, affect"
same,effect of cotreatment on ALLN-induced HSF1 trimerization,"HSF1; ALLN 40 μg/ml plus cycloheximide 50 μg/ml, 37° C.",abolished the effect of ALLN on HSF1 trimerization
same,effect of co-treatment on ALLN-induced increase in hsp72 mRNA,"hsp70, i.e. hsp72, mRNA",abolished
CC(=O)N[C@@H](CSC(=O)[C@]1([C@@H](O)C(C)C)NC(=O)[C@H](C)[C@@H]1O)C(=O)O [lactacystin],induction of Hsp70 levels by proteasome inhibitors (FIG. 9),"Hsp70; 4 hours, MG132 10 μM or 30 μM, lactacystin 10 μM, 30 min labeling",induced Hsp70 levels dramatically
same,"effect on cysteine protease, serine protease, trypsin or chymotrypsin",[2],no detectable effect
same,toxicity to the cells (TCA-precipitable radioactivities),HepG2 cells,without obvious toxicity
